Test systems include ACHN renal; U251 CNS; IGROV1 ovarian; MALME-3M melanoma; HCT-15 colon; NCI-H522 lung; SNB-75 CNS; CAKI-1 renal; SK-MEL-2 melanoma.
What all share (test): NCI anticancer screen, dose series, 48 h

Several values for one entry are separate records, joined by “and”; a condition that tells them apart may be missing. Equal values may be shown once.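 All cell lines were grown in 96-well plates and treated with compound for 48 hours. Abbreviation: GI50, concentration required for 50% inhibition of growth. TGI marks complete inhibition of growth.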

On to `Clc1ccc(CSC(Cn2ccnc2)c2ccc(Cl)cc2Cl)cc1` (centres undefined), for which the GI50 in the assay on ACHN renal was 2.28 µM; in the assay on U251 CNS, 1.39 µM; in the assay with IGROV1 ovarian it was 1.74 µM; in the assay with MALME-3M melanoma, 1.64 µM; in the assay with HCT-15 colon, 1.68 µM; in the assay with NCI-H522 lung, 1.13 µM. The values for the GI50 in the assay on SNB-75 CNS, in the assay on CAKI-1 renal and with SK-MEL-2 melanoma were 2.13 µM, 1.55 µM and 1.52 µM, respectively. Moreover, the TGI in the assay with ACHN renal came to 6.5 µM; in the assay with U251 CNS, 2.68 µM; in the assay with IGROV1 ovarian it was 4.55 µM; in the assay with MALME-3M melanoma, 3.15 µM; in the assay with HCT-15 colon it was 3.76 µM; in the assay on NCI-H522 lung it was 2.48 µM. Also, the values for the TGI in the assay on SNB-75 CNS, with CAKI-1 renal and with SK-MEL-2 melanoma were 8.04 µM, 4.05 µM and 3 µM, respectively.

As for `Cc1c2cc[n+](C)cc2c(C)c2c1sc1ccccc12`, the TGI in the assay on ACHN renal was 33.7 µM; with U251 CNS, 1.15 µM; in the assay with IGROV1 ovarian it was 28.4 µM; in the assay on MALME-3M melanoma it was 1.92 µM; with HCT-15 colon, over 100 µM; with NCI-H522 lung, 2.4 µM. Also, the results for the TGI in the assay with SNB-75 CNS, with CAKI-1 renal and in the assay on SK-MEL-2 melanoma were 0.804 µM, 60.6 µM and 7.71 µM, respectively.

In the case of `CC1CC(C2=CC=CCS2)=Nc2ccccc2S1` (centres undefined), the TGI with ACHN renal, with U251 CNS, in the assay with IGROV1 ovarian, in the assay on MALME-3M melanoma, with HCT-15 colon and with NCI-H522 lung was over 100 µM each time. For the same compound, the TGI is 78.6 µM in the assay on SNB-75 CNS, over 100 µM in the assay with CAKI-1 renal and over 100 µM in the assay on SK-MEL-2 melanoma.

For `C/C(=N\NC(=O)c1sc(=S)n(C)c1N)c1cc2ccccc2o1`, the GI50 is 13.4 µM in the assay on ACHN renal; 13.6 µM in the assay on U251 CNS; 21.4 µM with IGROV1 ovarian; 28.1 µM in the assay on MALME-3M melanoma; 10.6 µM with HCT-15 colon; 15.5 µM in the assay on NCI-H522 lung. Also, the GI50 with SNB-75 CNS is 17.3 µM; in the assay with CAKI-1 renal, 37.6 µM; in the assay with SK-MEL-2 melanoma, 14 µM. In addition, the TGI was 38.4 µM in the assay on ACHN renal; 29 µM in the assay with U251 CNS; over 100 µM in the assay on IGROV1 ovarian; 56.9 µM in the assay on MALME-3M melanoma; 24.9 µM in the assay with HCT-15 colon; 39 µM with NCI-H522 lung. Moreover, the values for the TGI in the assay with SNB-75 CNS, in the assay with CAKI-1 renal and in the assay on SK-MEL-2 melanoma were 42.6 µM, over 100 µM and 37 µM, respectively.

For the compound `F`, the GI50 in the assay with ACHN renal was 3050 µM; in the assay with U251 CNS, 2870 µM; in the assay with IGROV1 ovarian, 2800 µM; in the assay on MALME-3M melanoma, 1920 µM; with HCT-15 colon it was 3800 µM; in the assay with NCI-H522 lung, 4970 µM. For the same compound, the GI50 with SNB-75 CNS is 2160 µM; in the assay on CAKI-1 renal, 3220 µM; in the assay on SK-MEL-2 melanoma, 1440 µM. For the same compound, the TGI in the assay on ACHN renal was over 6870 µM; in the assay on U251 CNS, over 6870 µM; in the assay on IGROV1 ovarian, over 6870 µM; with MALME-3M melanoma, 5060 µM; in the assay on HCT-15 colon it was over 6870 µM; in the assay with NCI-H522 lung, over 6870 µM. For the same compound, the TGI with SNB-75 CNS is 5570 µM; with CAKI-1 renal it was over 6870 µM; in the assay with SK-MEL-2 melanoma, 2890 µM.

For the compound `CC[C@]12CCCN3CCc4c(n(c5ccccc45)C(=O)C1)[C@@H]32`, the TGI was over 100 µM in the assay on ACHN renal; over 52.2 µM in the assay on U251 CNS; over 100 µM in the assay with IGROV1 ovarian; over 67.9 µM with MALME-3M melanoma; over 100 µM in the assay with HCT-15 colon; 7.2 µM with NCI-H522 lung. In addition, the TGI was 78.4 µM in the assay on SNB-75 CNS, over 100 µM in the assay on CAKI-1 renal and over 100 µM with SK-MEL-2 melanoma.

In the case of `COc1cc2c(cc1O)CC[C@@H]1[C@@H]2CC[C@]2(C)[C@@H](NCCN(C)C)CC[C@@H]12`, the GI50 in the assay with ACHN renal was 0.459 µM; with U251 CNS it was 0.135 µM; with IGROV1 ovarian, 0.407 µM; with MALME-3M melanoma it was 0.19 µM; in the assay on HCT-15 colon, 0.111 µM; in the assay on NCI-H522 lung it was 0.108 µM. Further, the GI50 is 0.0613 µM in the assay with SNB-75 CNS, 0.464 µM with CAKI-1 renal and 0.127 µM with SK-MEL-2 melanoma. Moreover, the TGI in the assay with ACHN renal worked out at 0.991 µM; with U251 CNS, 0.458 µM; with IGROV1 ovarian, 0.954 µM; in the assay on MALME-3M melanoma, 0.669 µM; with HCT-15 colon, 0.454 µM; with NCI-H522 lung it was 0.5 µM. In addition, the TGI was 0.378 µM with SNB-75 CNS, 0.945 µM in the assay with CAKI-1 renal and 0.517 µM with SK-MEL-2 melanoma.

On to `COc1ccc(C2CC(=O)c3c(O)cc(O)cc3O2)cc1O` (centres undefined), for which the TGI in the assay with ACHN renal, in the assay with U251 CNS, in the assay with IGROV1 ovarian, in the assay with MALME-3M melanoma, with HCT-15 colon and in the assay with NCI-H522 lung was over 100 µM in each case. Moreover, the TGI in the assay with SNB-75 CNS, with CAKI-1 renal and with SK-MEL-2 melanoma was over 100 µM each time.

In the case of `CCN1CCN(Cc2ccc(-c3cc4c(N[C@H](C)c5ccccc5)ncnc4[nH]3)cc2)CC1`, the GI50 in the assay with ACHN renal was 0.0625 µM and 0.162 µM; in the assay on U251 CNS, 1.84 µM and 2.85 µM; in the assay with IGROV1 ovarian it was 0.112 µM and 0.176 µM; in the assay on MALME-3M melanoma it was 1.92 µM and 1.78 µM; with HCT-15 colon it was 2.56 µM and 2.39 µM; in the assay with NCI-H522 lung it was 0.154 µM and 0.462 µM. For the same compound, the GI50 in the assay with SNB-75 CNS is 1.48 µM and 1.88 µM; in the assay on CAKI-1 renal it was 0.252 µM and 1.27 µM; with SK-MEL-2 melanoma, 4.86 µM and > 10 µM. Besides, the TGI was 12.5 µM and > 10 µM in the assay with ACHN renal; 5.06 µM and > 10 µM in the assay with U251 CNS; 1.51 µM and 7.17 µM in the assay with IGROV1 ovarian; 4.14 µM and 4.02 µM with MALME-3M melanoma; 17.9 µM and > 10 µM in the assay with HCT-15 colon; 2.23 µM and > 10 µM in the assay with NCI-H522 lung. For the same compound, the TGI in the assay with SNB-75 CNS is 9.56 µM and 8.12 µM; with CAKI-1 renal, 3.17 µM and > 10 µM; in the assay on SK-MEL-2 melanoma, 17.4 µM and > 10 µM.

Consider `CCCCON(OC(=O)c1ccccc1)C(=O)c1ccccc1`, for which the GI50 with ACHN renal, with U251 CNS, with IGROV1 ovarian, in the assay with MALME-3M melanoma, with HCT-15 colon and in the assay with NCI-H522 lung was over 100 µM each time. For the same compound, the GI50 with SNB-75 CNS, in the assay with CAKI-1 renal and in the assay with SK-MEL-2 melanoma was over 100 µM each time. The TGI with ACHN renal, with U251 CNS, in the assay with IGROV1 ovarian, with MALME-3M melanoma, in the assay with HCT-15 colon and with NCI-H522 lung was over 100 µM throughout. The TGI with SNB-75 CNS, with CAKI-1 renal and in the assay on SK-MEL-2 melanoma was over 100 µM in each case.

The values above are taken from PubChem BioAssay (NCI).
